# Laboratory results taken from patent US9839642B2, “Beta-tetrazolyl-propionic acids as metallo-beta-lactamase inhibitors” (priority 2014, dated 2017).
# Legend:
# [1] = target: IMP-1 (Serratia marcescens, UniProt P52699); assay: Enzyme activity: determination of IC50, fluorescence assay with CCF2-FA substrate; assay type: biochemical; conditions: IMP-1 enzyme 2 pM, CCF2-FA 1.25 μM, 2 hours at 25° C.; read-out: IMP1 IC50
# Summary of the method: (§1)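 Read-out: fluorescence, ex 405 nm / em 460 nm, after 2 h at 25° C with 1.25 μM CCF2-FA. Buffer 100 mM KH2PO4 pH 7, 0.005% Tween-20, 10 μM ZnSO4; enzyme 1 pM NDM-1, 2 pM IMP-1, 30 pM VIM-1. IC50 by 4-parameter fit.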
# [2] = target: NDM-1 (Klebsiella pneumoniae, UniProt C7C422); assay: as above; assay type: biochemical; conditions: NDM-1 enzyme 1 pM, CCF2-FA 1.25 μM, 2 hours at 25° C.; read-out: NDM1 IC50
# Sequence of NDM-1 (C7C422 29-270, looked up, species assumed): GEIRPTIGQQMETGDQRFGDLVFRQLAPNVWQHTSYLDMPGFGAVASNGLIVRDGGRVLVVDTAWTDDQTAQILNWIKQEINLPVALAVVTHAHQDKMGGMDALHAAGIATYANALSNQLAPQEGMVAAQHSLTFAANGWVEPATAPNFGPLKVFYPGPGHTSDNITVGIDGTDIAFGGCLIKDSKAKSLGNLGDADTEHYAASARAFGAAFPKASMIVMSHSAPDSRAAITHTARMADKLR
# Summary of the method: as §1
# [3] = target: VIM-1 (Pseudomonas aeruginosa, UniProt A0A0F7KYQ8); assay: as above; assay type: biochemical; conditions: VIM-1 enzyme 30 pM, CCF2-FA 1.25 μM, 2 hours at 25° C.; read-out: VIM1 IC50
# Summary of the method: as §1
# [4] = test system: Escherichia coli expressing NDM-1 (CLB30016); assay: Antibiotic potentiation activity: synergistic concentration (MITC95) with imipenem, growth by OD600; assay type: cell-based; conditions: E. coli CLB30016 (NDM-1), 95% inhibition of growth
# Summary of the method: (§2)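 Strains grown overnight at 35° C, resuspended in saline, diluted 1:100 into 1.1×CAMHB; imipenem at 1 μg/ml or 4 μg/ml with test compound 200 μM to 0.195 μM. Incubated 22 hours to 24 hours at 35° C, OD600 read; MITC95 is lowest compound concentration inhibiting 95% of growth.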
# [5] = test system: Klebsiella pneumoniae expressing VIM-1 (IHMA599644); assay: as above; assay type: cell-based; conditions: K. pneumoniae IHMA599644 (VIM-1), 95% inhibition of growth
# Summary of the method: as §2
# [6] = test system: Serratia marcescens expressing IMP-1 (CL5741); assay: as above; assay type: cell-based; conditions: S. marcescens CL5741 (IMP-1), 95% inhibition of growth
# Summary of the method: as §2
# Sequence of IMP-1 (P52699 19-246, looked up, species assumed): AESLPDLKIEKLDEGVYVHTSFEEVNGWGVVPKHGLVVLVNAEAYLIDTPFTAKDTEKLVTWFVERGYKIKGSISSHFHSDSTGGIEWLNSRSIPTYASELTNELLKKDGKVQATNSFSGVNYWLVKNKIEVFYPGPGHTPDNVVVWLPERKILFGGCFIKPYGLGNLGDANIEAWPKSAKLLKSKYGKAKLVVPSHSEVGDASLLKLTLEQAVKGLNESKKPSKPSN
Compound,IC50 [1] [nM],IC50 [2] [nM],IC50 [3] [nM],NDM1 EC30016 MITC95 [4] [µM],VIM1 KP599644 MITC95 [5] [µM],IMP1 SM5741 MITC95 [6] [µM]
"CC(C)C[C@H](C(=O)O)[C@H](Cc1ccc(N2CC(N)C2)nc1)c1nnn[nH]1 [Example 327, (2S)-2-[(1S)-2-[6-(3-aminoazetidin-1-yl)pyridin-3-yl]-1-(1H-tetrazol-5-yl)ethyl]-4-methylpentanoic acid]",2600,470,17,9.4,38,38
"CC(C)C[C@H](C(=O)O)[C@H](Cc1ccc(N2CC3(CNC(=O)C3)C2)nc1)c1nnn[nH]1 [Example 328, (2S)-4-methyl-2-[(1S)-2-[6-(7-oxo-2,6-diazaspiro[3.4]oct-2-yl)pyridin-3-yl]-1-(1H-tetrazol-5-yl)ethyl]pentanoic acid]",1100,260,12,9.4,50,50
"CC(C)C[C@H](C(=O)O)[C@H](Cc1ccc(N2CC(N3CCOCC3)C2)nc1)c1nnn[nH]1 [Example 329, (2S)-4-methyl-2-[(1S)-2-[6-(3-morpholin-4-ylazetidin-1-yl)pyridin-3-yl]-1-(1H-tetrazol-5-yl)ethyl]pentanoic acid]",450,170,49,12.5,>200,25
"CC(C)C[C@H](C(=O)O)[C@H](Cc1ccc(N2CC(CO)(CO)C2)nc1)c1nnn[nH]1 [Example 330, (2S)-2-[(1S)-2-{6-[3,3-bis(hydroxymethyl)azetidin-1-yl]pyridin-3-yl}-1-(1H-tetrazol-5-yl)ethyl]-4-methylpentanoic acid]",400,100,22,16,100,25
"CC(C)C[C@H](C(=O)O)[C@H](Cc1ccc(N2CC(C(C)(C)O)C2)nc1)c1nnn[nH]1 [Example 331, (2S)-2-[(1S)-2-{6-[3-(1-hydroxy-1-methylethyl)azetidin-1-yl]pyridin-3-yl}-1-(1H-tetrazol-5-yl)ethyl]-4-methylpentanoic acid]",340,130,49,9.4,100,18.8
"CC(C)C[C@H](C(=O)O)[C@H](Cc1ccc(N2CC(N3CCN(C)CC3)C2)nc1)c1nnn[nH]1 [Example 332, (2S)-4-methyl-2-[(1S)-2-{6-[3-(4-methylpiperazin-1-yl)azetidin-1-yl]pyridin-3-yl}-1-(1H-tetrazol-5-yl)ethyl]pentanoic acid]",540,160,24,4.7,50,12.5
"CC(C)C[C@H](C(=O)O)[C@H](Cc1ccc(N2CC(CCO)C2)nc1)c1nnn[nH]1 [Example 333, (2S)-2-[(1S)-2-{6-[3-(2-hydroxyethyl)azetidin-1-yl]pyridin-3-yl}-1-(1H-tetrazol-5-yl)ethyl]-4-methylpentanoic acid]",170,58,8.2,1.6,38,12.5
"CC(C)C[C@H](C(=O)O)[C@H](Cc1ccc(N2CC(S(C)(=O)=O)C2)nc1)c1nnn[nH]1 [Example 335, (2S)-4-methyl-2-[(1S)-2-{6-[3-(methylsulfonyl)azetidin-1-yl]pyridin-3-yl}-1-(1H-tetrazol-5-yl)ethyl]pentanoic acid]",56,59,4.9,6.2,75,3.1
"CC(C)C[C@H](C(=O)O)[C@H](Cc1ccc(N2CC3(CCNC3)C2)nc1)c1nnn[nH]1 [Example 336, (2S)-2-[(1S)-2-[6-(2,6-diazaspiro[3.4]oct-2-yl)pyridin-3-yl]-1-(1H-tetrazol-5-yl)ethyl]-4-methylpentanoic acid]",1200,180,20,3.1,25,25
"CC(C)C[C@H](C(=O)O)[C@H](Cc1ccc(N2CC3(CN(C)C(=O)O3)C2)nc1)c1nnn[nH]1 [Example 337, (2S)-4-methyl-2-[(1S)-2-[6-(7-methyl-6-oxo-5-oxa-2,7-diazaspiro[3.4]oct-2-yl)pyridin-3-yl]-1-(1H-tetrazol-5-yl)ethyl]pentanoic acid]",300,62,10,9.4,75,18.8
"CC(C)C[C@H](C(=O)O)[C@H](Cc1ccc(N2CC(O)(C(F)(F)F)C2)nc1)c1nnn[nH]1 [Example 338, (2S)-2-[(1S)-2-{6-[3-hydroxy-3-(trifluoromethyl)azetidin-1-yl]pyridin-3-yl}-1-(1H-tetrazol-5-yl)ethyl]-4-methylpentanoic acid]",200,110,38,31,150,9.4
"CCC[C@H](C(=O)O)[C@H](Cc1cccc(-c2cccnc2)c1)c1nn[nH]n1 [Example 339, (2S)-2-[(1S)-2-(3-pyridin-3-ylphenyl)-1-(2H-tetrazol-5-yl)ethyl]pentanoic acid]",160,3.6,1.4,18.8,38,6.2
"CCC[C@H](C(=O)O)[C@H](Cc1cccc(-c2ccnc(N3CCNCC3)c2)c1)c1nn[nH]n1 [Example 340, (2S)-2-[(1S)-2-[3-(2-piperazin-1-ylpyridin-4-yl)phenyl]-1-(2H-tetrazol-5-yl)ethyl]pentanoic acid]",180,46,3.5,38,50,4.7
"CCC[C@H](C(=O)O)[C@H](Cc1cccc(-c2cccc(C(N)=O)c2)c1)c1nn[nH]n1 [Example 341, (2S)-2-[(1S)-2-(3′-carbamoylbiphenyl-3-yl)-1-(2H-tetrazol-5-yl)ethyl]pentanoic acid]",110,6.6,0.99,18.8,18.8,2.3
"CCC[C@H](C(=O)O)[C@H](Cc1cccc(-c2ccc(N)nc2)c1)c1nn[nH]n1 [Example 342, (2S)-2-[(1S)-2-[3-(6-aminopyridin-3-yl)phenyl]-1-(2H-tetrazol-5-yl)ethyl]pentanoic acid]",170,4.7,1.1,6.2,12.5,3.1
"CCC[C@H](C(=O)O)[C@H](Cc1cccc(-c2ccc(NS(C)(=O)=O)cc2)c1)c1nn[nH]n1 [Example 343, (2S)-2-[(1S)-2-{4′-[(methylsulfonyl)amino]biphenyl-3-yl}-1-(2H-tetrazol-5-yl)ethyl]pentanoic acid]",22,11,2.4,25,18.8,0.39
